Test results: paper PMC5046141, “Discovery of Isoquinolinoquinazolinones as a Novel Class of Potent PPARγ Antagonists with Anti-adipogenic Effects” (Scientific Reports, 2016)

How the values were obtained:
[1] = system: 3T3-L1 preadipocytes; experiment: Oil Red O staining assay of adipocyte differentiation; type: cell-based, mouse; settings: for inhibition at 25 µM: Mus musculus, 3T3-L1, relative absorbance from Oil Red O staining at 25 μM, read-out: Inhibitory activity (%) on adipocyte differentiation
Experimental: The GW9662-mediated inhibition of PPARγ was confirmed using an Oil Red O staining assay to measure adipocyte differentiation. To investigate whether the novel compounds could inhibit adipocyte differentiation, 3T3-L1 preadipocytes were incubated with differentiation medium (MDI; insulin, dexamethasone, and isobutyl methyl xanthine) in the presence of increasing concentrations of isoquinolinoquinazolinones. Adipogenesis was analyzed using Oil Red O staining after treatment with the compounds.
The mouse preadipocyte cell line 3T3-L1 was maintained at 37 °C in humidified air with 5% CO2. 3T3-L1 cells were cultured in Dulbecco’s modified Eagle medium (DMEM; Life Technologies) supplemented with 10% bovine serum (BS; Gibco Invitrogen, Carlsbad, California, USA) as growth medium. For adipocyte differentiation, cells were cultured for 2 days to full confluence in a 24-well plate and the growth medium was then replaced (day 0) with DMEM supplemented with 10% fetal bovine serum (FBS, Gibco Invitrogen, Carlsbad, California, USA), 5 μg/mL insulin (Sigma, St. Louis, Missouri, USA), 0.5 mM 3-isobutyl-1-methylxanthine (Sigma), and 1 μM dexamethasone (Sigma). After 48 h, the differentiation medium was replaced (day 2) with DMEM + 10% FBS containing 5 μg/mL insulin, and the cells were allowed to accumulate lipid droplets until experimental use.
The accumulation of lipids signifying the formation of adipocytes was observed by staining the differentiated cells with Oil Red O. Following differentiation, cells were washed twice with phosphate-buffered saline (PBS), fixed with 10% formalin for 60 min. Oil Red O stock solution (0.5%) was prepared in isopropanol and filtered in cellulose nitrate filters. Cells were stained with Oil Red O diluted 6:4 in water for 1 h at room temperature. Excess Oil Red O dye was washed off twice with distilled water and then dried. The stained lipid droplets within cells were visualized using an optical microscope and photographed with a digital camera at 100× magnification.

[2] = molecular target: T1, PPARγ2 (Mus musculus, UniProt P37238); experiment: PPRE-Luc luciferase reporter assay of PPARγ2-induced transcriptional activity in 3T3-L1 cells; type: cell-based
T1 construct: expressed in transfected cells; host or cells: 3T3-L1 (mouse preadipocytes), pCS4 CMV vector
T1 sequence (P37238 1-505): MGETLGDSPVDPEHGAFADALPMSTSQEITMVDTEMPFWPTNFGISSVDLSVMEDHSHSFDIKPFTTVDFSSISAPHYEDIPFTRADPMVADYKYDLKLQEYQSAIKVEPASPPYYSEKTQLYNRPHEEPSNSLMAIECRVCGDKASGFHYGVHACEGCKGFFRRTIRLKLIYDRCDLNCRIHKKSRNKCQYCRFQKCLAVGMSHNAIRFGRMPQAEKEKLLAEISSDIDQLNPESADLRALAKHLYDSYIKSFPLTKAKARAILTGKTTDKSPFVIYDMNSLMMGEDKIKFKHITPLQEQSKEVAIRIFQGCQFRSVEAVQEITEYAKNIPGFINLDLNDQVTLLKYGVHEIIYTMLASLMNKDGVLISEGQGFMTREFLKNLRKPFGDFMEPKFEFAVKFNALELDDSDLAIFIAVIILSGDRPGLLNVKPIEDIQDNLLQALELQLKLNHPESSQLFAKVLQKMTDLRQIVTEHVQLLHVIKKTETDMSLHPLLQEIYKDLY
Experimental: To analyze whether isoquinolinoquinazolinones inhibit the transactivation of PPARγ, 3T3-L1 cells were cotransfected with full-length PPARγ2 expression vector with a peroxisome proliferator response element (PPRE)-driven luciferase reporter gene (PPRE-Luc) that has been reported to respond to PPARγ[23][24]. […] Titration curves were generated using Graph Pad Prism®, and the IC50 value of each compound with respect to PPARγ2-induced transcriptional activity was determined.
The transcription activity was determined in 3T3-L1 cells transiently co-transfected with PPRE-driven luciferase reporter gene (PPRE-Luc) and PPARγ2 expression vector. […] After 24 h of transfection, the cells were cultured with indicated combination for 12 h. Luciferase activity was measured after 36 h.
For plasmids expressing PPARγ2, full length PPARγ2 (mouse, 1518 bp: NCBI Reference Sequence: NP_035276.2) was subcloned into CMV promoter-derived mammalian expression vector (pCS4). Plasmids for C285G, R288G mutant PPARγ2 were generated by PCR-based site-directed mutagenesis and also subcloned into CMV promoter-derived mammalian expression vector (pCS4).
3T3-L1 cells were transfected for indicated combinations of expression plasmids along with a luciferase reporter plasmid (PPRE-Luc). PPRE-Luc contains the consensus PPAR responsive element (PPRE). pCMV-β-gal was co-transfected for normalization of transfection efficiency. 24 h after transfection, cells were treated with indicated compounds for 12 h. Luciferase activities were measured using a luciferase reporter assay kit (Promega, Madison, WI, USA). Experiments were performed in triplicate and repeated at least three times.

Row | Compound | inhibition at 25 µM [1] | melting point | further results
1 | Cc1cccc2c(=O)n3c(cc12)-c1cc(Cl)ccc1NC3 [Compound 8c] | 30.9% | 240.5 to 242.1 °C | 
2 | Cc1cccc2c(=O)n3c(cc12)-c1ccccc1OC3 [Compound 10a] | 23.6% |  | 
3 | Cc1ccc2c(=O)n3c(cc2c1)-c1ccccc1NC3 [Compound 8d] | 53.9% | 119.1 to 120.4 °C | 
4 | Cc1cc2cc3n(c(=O)c2cc1C)COc1cc2c(cc1-3)OCO2 [Compound 10h] | 38.8% |  | 
5 | Cc1cc2cc3n(c(=O)c2cc1C)CNc1cc(Cl)ccc1-3 [Compound 8j] | 53% | 235.1 to 236.4 °C | 
6 | Cc1cc2cc3n(c(=O)c2cc1C)CNc1ccccc1-3 [Compound 8h] | 41.6% | 212.7 to 214.2 °C | 
7 | Cc1ccc2c(=O)n3c(cc2c1)-c1cc2c(cc1OC3)OCO2 [Compound 10f] | 30.5% |  | 
8 | COc1ccc2c(=O)n3c(cc2c1)-c1cc(Cl)ccc1NC3 [Compound 8m] | 28.1% | 203.9 to 205.2 °C | 
9 | Cc1ccc2c(=O)n3c(cc2c1)-c1ccc(Cl)cc1NC3 [Compound 8e] | 63.3% | 210 to 211.5 °C | 
10 | Cc1cccc2c(=O)n3c(cc12)-c1ccccc1NC3 [Compound 8b] | 49% | 226.5 to 228.1 °C | 
11 | CN(CCOc1ccc(CC2SC(=O)NC2=O)cc1)c1ccccn1 (stereo not shown) [Rosiglitazone] |  |  | increase of luciferase expression ([2]; rosiglitazone treatment, PPRE-Luc): up to 3 fold
12 | Cc1ccc2c(=O)n3c(cc2c1)-c1ccccc1OC3 [Compound 10b] | 25.7% |  | 
13 | Cc1ccc2cc3n(c(=O)c2c1)CNc1ccccc1-3 [Compound 8f] | 28.6% | 213.2 to 214.5 °C | 
14 | COc1ccc2c(=O)n3c(cc2c1)-c1ccc(Cl)cc1NC3 [Compound 8l] | 39.1% | 213.6 to 215.1 °C | 
15 | Cc1ccc2cc3n(c(=O)c2c1)CNc1ccc(Cl)cc1-3 [Compound 8g] | 42.4% | 202.6 to 205.1 °C | 
16 | COc1ccc2cc3[n+](cc2c1OC)CCc1cc2c(cc1-3)OCO2 [Berberine] | 71.4% |  | inhibition of PPARγ2 transfection (transcriptional activity), with rosiglitazone stimulation ([2]; 5 μM, with rosiglitazone): 40%; inhibition of PPARγ2 transfection (transcriptional activity), compound alone ([2]; 5 μM, without rosiglitazone): 33%; IC50 ([2]; 3T3-L1 cotransfected with PPARγ2 and PPRE-Luc, read-out: IC50 with respect to PPARγ2-induced transcriptional activity): 6.63 µM
17 | Cc1cc2cc3n(c(=O)c2cc1C)COc1ccccc1-3 [Compound 10c] | 60.4% |  | 
18 | O=c1c2ccccc2cc2n1CNc1ccccc1-2 [Compound 8a, 5H-Isoquinolino[2,3-c]quinazolin-8(6H)-one] | 53% | 204.3 to 206.3 °C | 
19 | 6,8-Dihydro-5H-isoquinolino[2,3-c]quinazoline [Compound 9] |  |  | Inhibitory activity (%) on adipocyte differentiation ([1]; relative absorbance from Oil Red O staining at 25 μM): 62.5%
20 | COc1ccc2c(=O)n3c(cc2c1OC)-c1ccccc1OC3 [Compound 10d] | 62.5% |  | 
21 | Cc1ccc2cc3n(c(=O)c2c1)COc1cc2c(cc1-3)OCO2 [Compound 10g] | 40.9% |  | 
22 | Cc1cccc2c(=O)n3c(cc12)-c1cc2c(cc1OC3)OCO2 [Compound 10e] | 44.8% |  | 
23 | Cc1cc2cc3n(c(=O)c2cc1C)CNc1ccc(Cl)cc1-3 [Compound 8i] | 49.8% | 268.7 to 270.6 °C | 
24 | COc1ccc2c(=O)n3c(cc2c1)-c1ccccc1NC3 [Compound 8k] | 56.1% | 145.4 to 148 °C | 
